# Source: patent US20260199496A1, “LINKER, LINKER-CONTAINING ANTIBODY DRUG CONJUGATE, AND PREPARATION METHOD THEREFOR AND USE THEREOF” (CHENGDU CHIPSCREEN NEWWAY BIOSCIENCES CO., LTD., priority 2022, published 2026)
# Where “and” joins values, the source holds several entries; their conditions need not be identical. Identical values can stand only once.
# Assays:
# [1] = tested on: A375-hPDL1-Luciferase cells; test: Inhibition of A375 in co-culture with human PBMCs (luciferase); type: cell-based; details: PBMC:A375 E:T 5:1, Matrigel, 6 days
# Protocol: Cryopreserved PBMCs were taken out from a liquid nitrogen tank and added to 8 mL of pre-heated RPMI 1640 medium, and the mixture was centrifuged at 500 g for 10 min. The supernatant was discarded, and the PBMCs were resuspended in a small amount of RPMI 1640 medium. Then, the cell suspension was 10-fold diluted, and 20 μL of dilution was taken for cell counting. The cells were resuspended to 5E6 cells/mL. The A375-hPDL1-Luciferase cell suspension was collected, and 20 μL was taken for cell counting. The cells were resuspended to 1E6 cells/mL. The PBMC and A375-hPDL1-Luciferase cell suspensions were mixed at equal volumes to prepare a cell mixture with an E:T ratio of 5:1, and the mixture was adjusted to a total volume of 1500 L using RPMI 1640 complete medium. Matrigel was thawed on ice, and 1500 L of the thawed Matrigel was mixed with the cell mixture. The resulting mixture was added to a black 384-well plate at 20 μL/well, which was then placed at 37° C. for 10 min for solidification. […] The dilutions were added to the 384-well plate at 30 μL/well, and the cells were cultured at 37° C. with 5% CO2 for 6 days. Then, the 384-well plate was taken out, and Bio-Lite Luciferase Assay System was added at 20 μL/well. The mixture was incubated for 5-10 min and then assayed using a multi-mode microplate reader. The results are shown in FIG. 31, FIG. 32, and Table 7.
# CT26 hPD-L1-EX cells [2] = test: Inhibition of CT26 hPD-L1-EX cell proliferation (MTS); type: cell-based; details: replicate wells; for Inhibition % / OD490: 5 μM, 48 h
# Protocol: (1) CT26 hPD-L1-EX cells were collected, and 20 μL was taken for cell counting. (2) The cells were resuspended to 0.5×10^5 cells/mL and 0.5×10^5 cells/mL (5 mL each). (3) The cell suspensions were respectively added to two 96-well plates at 50 μL/well, followed by overnight culture at 37° C. with 5% CO2. (4) The ADC sample was diluted according to predetermined concentrations and added to the well plates at 100 μL/well. (5) The cells were cultured at 37° C. with 5% CO2 for 48 h. (6) 50 μL of culture medium was first aspirated and discarded, and then an MTS reagent was added at 20 μL/well. The cells were cultured at 37° C. with 5% CO2 for another 1-4 h. (7) Readings were taken at 490 nm.
# CT26 hPD-L1-EX cells [3] = test: Inhibition of CT26 hPD-L1-EX cell proliferation (CCK8); type: cell-based; details: 2 days, CCK8, replicate wells; for Inhibition % / OD450: 10 μM
# Protocol: (1) CT26 hPD-L1-EX cells were collected, and 20 μL was taken for cell counting. (2) The cells were resuspended to 2×10^5 cells/mL. (3) The cell suspension was added to a 96-well plate at 50 μL/well (1×10^4 cells/well), followed by overnight culture at 37° C. with 5% CO2. (4) The next day, the 96-well plate was taken out. The test sample was diluted with complete medium containing 10% FBS and then added to the plate at 50 µL/well to achieve a final sample concentration of 10 μM. The day of test sample addition was designated as day 0. The cells were cultured at 37° C. with 5% CO2 for another 2 days. (5) Day 2: The cell growth status was observed under a microscope, and then CCK8 was added at 10 μL/well. The cells were then cultured at 37° C. with 5% CO2 for another 4 h. (6) Absorbance values at 450 nm (OD450) were measured in real-time using a microplate reader.
# Cyno PD-L1-his = test: SPR (Biacore T200) affinity for Cyno PD-L1-his; parameters: species or system cynomolgus monkey; details: ligand Cyno PD-L1-His, 1:1 binding model
# Protocol: (§1) […] Cyno PD-L1-his was captured onto the chip surface. The antibody-drug conjugate samples and the naked antibody sample were 2-fold diluted with 1×PBST to give a total of 7 concentration points, with the sample concentrations all being 25 nM-0.39 nM. The program was set. The samples were then loaded, and the program was executed. Data were analyzed using the Biacore Evaluation Software with the 1:1 binding model for kinetic fitting. The above steps were repeated. 2 μg/mL hPD-L1-his, 5 μg/mL mPD-L1-his, and 5 µg/mL Rat PD-L1-his were captured onto the chip surface separately. The above 4 samples were 2-fold diluted with 1×PBST. […] The program was set. The samples were then loaded, and the program was executed. Data were analyzed using the Biacore Evaluation Software with the 1:1 binding model for kinetic fitting.
# NCI-H292 cells = test: Internalization in human lung cancer cell line NCI-H292; type: cell-based; details: NCI-H292, 150 nM, 2 h, 4 h, 22 h; FIG. 28
# Protocol: (1) NCI-H292 cells were collected, and 20 µL was taken for cell counting. (2) The cells were resuspended to 6×10^6 cells/mL, and the cell suspension was added into two 1.5-mL EP tubes at 100 μL/tube. (3) Diluted antibody-drug conjugate (ADC) group and antibody group samples were added separately at 100 L/tube, achieving a final sample concentration of 150 nM. The mixtures were thoroughly mixed and then incubated at 4° C. in the dark for 1 h. (4) The mixtures were washed twice with pre-cooled PBS and centrifuged at 1200 rpm for 5 min at 4° C., and then the supernatants were discarded. (5) Complete medium was added at 300 μL/tube to resuspend the cells, and the cell suspensions were separately transferred to new EP tubes at 150 L/tube, with one tube kept at 4° C. and the other incubated at 37° C. (6) After 2 h, 4 h, and 22 h, 50 L of cell suspension was collected from each of the 4° C. and 37° C. tubes, transferred to new EP tubes, mixed with 1 mL of pre-cooled PBS, and centrifuged at 1200 rpm for 5 min at 4° C., and then the supernatants were discarded. […] (9) Pre-cooled PBS was then added at 100 L/tube to resuspend the cells, and the cell suspensions were analyzed on a machine. (10) The internalization rate was calculated using the following formula: Internalization (%)=positive rate4° C. […]
# Rat PD-L1-his = Rat PD-L1-his (Rattus norvegicus, UniProt D4AE25); test: SPR (Biacore T200) affinity for Rat PD-L1-his; details: ligand Rat-PD-L1-His, 1:1 binding model
# Protocol: as §1
# MC38 tumor = test: C57BL/6J mouse MC38 tumor model, ADC vs naked antibody (18.1); type: in vivo; details: 10 mg/kg intraperitoneal, three times per week, day 7 post-administration
# Protocol: 18.1. The specific procedures were as follows: On the day of cell inoculation, each C57BL/6J mouse was subcutaneously inoculated with 3×10^5 MC38 cells (0.1 mL/mouse). When the average tumor volume in mice reached about 70-80 mm^3, grouping was performed. A total of 24 mice were divided into 3 groups, and drug administration began on the day of grouping. The administration regimen was three times per week, and the route of administration was intraperitoneal injection. […] The vehicle control group was intraperitoneally injected with an equivalent volume of PBS solution. After the start of administration, the body weight and tumor volume were measured three times per week. The tumor volume was calculated as: tumor volume (mm^3)=0.5×long diameter of tumor×(short diameter of tumor)^2. The experiment was terminated on day 7 post-administration. All mice were euthanized, and tumor tissues were collected and weighed.
# mPD-L1-his = mPD-L1-his (Mus musculus, UniProt Q9EP73); test: SPR (Biacore T200) affinity for mPD-L1-his; details: ligand mPD-L1-His, 1:1 binding model
# Protocol: The program was set. The samples were then loaded, and the program was executed. Data were analyzed using the Biacore Evaluation Software with the 1:1 binding model for kinetic fitting. The above steps were repeated. 2 μg/mL hPD-L1-his, 5 μg/mL mPD-L1-his, and 5 g/mL Rat PD-L1-his were captured onto the chip surface separately. The above 4 samples were 2-fold diluted with 1×PBST. […] The program was set. The samples were then loaded, and the program was executed. Data were analyzed using the Biacore Evaluation Software with the 1:1 binding model for kinetic fitting.
# hPD-L1-his = hPD-L1-his (Homo sapiens, UniProt Q9NZQ7); test: SPR (Biacore T200) affinity for hPD-L1-his; details: 1:1 binding model
# Protocol: The procedures were as follows: A CM5 chip was activated with N-hydroxysuccinimide (NHS) and 1-ethyl-3-(3-dimethylaminopropyl)carbodiimide hydrochloride (EDC) at a 1:1 (v/v) ratio. Then, an anti-his antibody was immobilized, and the chip was blocked. 1 g/mL hPD-L1-his was captured onto the chip surface. […] The program was set. The samples were then loaded, and the program was executed. Data were analyzed using the Biacore Evaluation Software with the 1:1 binding model for kinetic fitting.
# [4] = Table 3-1, ligand hPD-L1-His captured
# hPD-L1-his, sequence (Q9NZQ7 19-290): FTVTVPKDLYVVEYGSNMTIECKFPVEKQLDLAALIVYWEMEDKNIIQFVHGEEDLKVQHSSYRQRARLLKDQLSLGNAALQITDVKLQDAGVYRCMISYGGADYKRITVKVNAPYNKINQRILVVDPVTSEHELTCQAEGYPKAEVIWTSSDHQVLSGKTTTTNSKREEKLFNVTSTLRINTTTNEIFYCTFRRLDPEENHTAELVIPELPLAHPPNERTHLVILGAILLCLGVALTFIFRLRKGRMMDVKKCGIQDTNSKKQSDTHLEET
# Rat PD-L1-his, sequence (D4AE25 1-290): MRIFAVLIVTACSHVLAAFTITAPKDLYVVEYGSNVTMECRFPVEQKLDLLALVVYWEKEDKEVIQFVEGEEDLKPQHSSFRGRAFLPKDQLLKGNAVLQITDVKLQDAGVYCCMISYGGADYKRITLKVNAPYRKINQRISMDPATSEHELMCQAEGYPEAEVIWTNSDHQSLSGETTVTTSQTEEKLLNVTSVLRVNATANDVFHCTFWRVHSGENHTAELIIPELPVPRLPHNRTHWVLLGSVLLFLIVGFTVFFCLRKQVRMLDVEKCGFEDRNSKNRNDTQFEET
# mPD-L1-his, sequence (Q9EP73 19-290): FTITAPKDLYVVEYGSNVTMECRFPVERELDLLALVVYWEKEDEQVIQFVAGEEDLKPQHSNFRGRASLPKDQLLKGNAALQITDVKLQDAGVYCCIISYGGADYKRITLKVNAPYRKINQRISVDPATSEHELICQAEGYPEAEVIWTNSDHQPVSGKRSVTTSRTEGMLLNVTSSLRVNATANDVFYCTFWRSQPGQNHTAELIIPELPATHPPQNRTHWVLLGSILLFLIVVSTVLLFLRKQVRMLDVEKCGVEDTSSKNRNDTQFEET
compound,measurement,setting,value
"Nc1cc(F)ccc1NC(=O)c1ccc(CNC(=O)/C=C/c2cccnc2)cc1 [Chidamide, reference compound]",IC50,[1],823 nM
same,Inhibition %,CT26 hPD-L1-EX cells [2],11.73%
same,OD490,CT26 hPD-L1-EX cells [2],1.0283 and 1.0841
same,inhibition at 5 µM,"CT26 hPD-L1-EX cells [2]; Mus musculus, CT26, 48 h",16.1%
same,Inhibition %,CT26 hPD-L1-EX cells [3],14.58% and 12.16%
same,OD450,CT26 hPD-L1-EX cells [3],1.9014 and 1.9554 and 1.7934
same,inhibition at 10 µM,"CT26 hPD-L1-EX cells [3]; Mus musculus, CT26, 48 h",19.4%
atezolizumab [Ate antibody],Kd,Cyno PD-L1-his,0.0826 nM
same,ka,Cyno PD-L1-his,1.58e+06 M⁻¹ s⁻¹
same,kd,Cyno PD-L1-his,0.00013 s⁻¹
same,tumor cell internalization rate,NCI-H292 cells,increased over time
same,Inhibition %,CT26 hPD-L1-EX cells [2],4.42% and 5.66%
same,OD490,CT26 hPD-L1-EX cells [2],1.1715 and 1.1587
same,Inhibition %,CT26 hPD-L1-EX cells [3],13.08% and 4.39% and 10.94%
same,OD450,CT26 hPD-L1-EX cells [3],2.1282 and 1.9824 and 1.9349
same,ka,Rat PD-L1-his,2.86e+06 M⁻¹ s⁻¹
same,kd,Rat PD-L1-his,0.000981 s⁻¹
same,tumor growth inhibition rate TGI (%),MC38 tumor,16.26%
same,tumor volume,MC38 tumor,701.09 mm^3
same,ka,mPD-L1-his,1.76e+06 M⁻¹ s⁻¹
same,kd,mPD-L1-his,0.000119 s⁻¹
same,ka,hPD-L1-his; [4],1.26e+06 M⁻¹ s⁻¹
same,kd (1/s),hPD-L1-his; [4],<10^−5 1/s
same,ka,"hPD-L1-his; Table 3-2, ligand hPD-L1-His",2.46e+06 M⁻¹ s⁻¹
same,kd,"hPD-L1-his; Table 3-2, ligand hPD-L1-His",<1e-05 s⁻¹
